We go through 22 molecules from PubChem BioAssay (NCI).

Several values for one entry are separate records, joined by “and”; a condition that tells them apart may be missing. Equal entries are not always repeated.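 Cells were grown in 96-well plates and exposed to each compound for 48 hours at five concentrations; endpoints were interpolated linearly between bracketing concentrations, or set to the highest concentration if not reached. Abbreviation: GI50, concentration required for 50% inhibition of growth. TGI: total growth inhibition.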 A value given as a limit tells only on which side of the number the result lay.

In the first experiment the test system is SW-620 colon. The experiment can be described thus: DTP human tumour cell line panel, 48 h.
Molecule `CCC(=O)C12OC3OC(C)(C)OC3C1OC(C)(C)O2` (centres undefined) showed a TGI greater than 100 µM.

Take `COc1cc(C(=O)C/C(CCC(=O)Nc2ccccc2[N+](=O)[O-])=N\NC(N)=O)ccc1O`: the TGI is greater than 100 µM.

Take `COc1ccc(-c2cc(Cc3cccs3)c(=O)[nH]n2)cc1`: the total growth inhibition concentration (TGI) is greater than 100 µM.

For the molecule `O=C1NC(=O)C(N2C(=O)c3ccccc3C2=O)CC1O` (centres undefined), the GI50 was greater than 100000 nM and the TGI was greater than 100 µM.

Molecule `COC(=O)C1(C)CCc2c(OC)ccc(OC)c2C1=O` (centres undefined) had a TGI greater than 100 µM.

In turn, `COC(=O)C1CC2CC(=NNC(N)=O)CC2C1` (centres undefined) yielded a TGI greater than 100 µM.

`COc1ccc2c(c1)N(CCO)C1=C(C(=O)OC1)C2c1cccc(F)c1` (centres undefined): the GI50 is 236 nM and the TGI was greater than 50 µM.

For `C=CC(=O)Nc1cccc(Oc2nc(Nc3ccc(N4CCN(C)CC4)cc3)nc3ccsc23)c1`, the GI50 is 2070 nM and 1920 nM; the TGI is 4.61 µM and 4.07 µM.

With `OCc1ccc(N2CCCC2c2ccccc2)cc1Cl` (centres undefined), the GI50 was 2800 nM and the TGI is 27.7 µM.

`COC1C=COC2(C)Oc3c(C)c(O)c4c(c3C2=O)/C(=N/C2CCC(O)OC2C)C=C(NC(=O)/C(C)=C\C(=O)C2CC2C(O)C(C)C(O)C(C)C(OC(C)=O)C1C)C4=O` (centres undefined) returned a total growth inhibition concentration (TGI) of 4.91 µM.

As to `CC(=O)/C=C/c1cn(C(=O)OC(C)(C)C)c2ccc(Br)cc12`, the GI50 was 19100 nM and the TGI is 39 µM.

As for `CCOc1ccccc1C(=O)N1CCN(c2cc(Cl)cc(Cl)c2)CC1`, the GI50 was 41.5 nM and the TGI came to 15.8 µM.

`NC(CSC1c2ccccc2-c2ccccc21)C(=O)O` (centres undefined) came in with a concentration for total growth inhibition (TGI) greater than 100 µM.

Molecule `COc1cc2c(cc1C1COc3cc4occc4cc3C1=O)OCO2` (centres undefined) had a TGI greater than 100 µM.

Regarding `Cc1cc(S(=O)(=O)/N=C(/N)Nc2ccccc2O)c(SCc2ccccc2)cc1Cl`, the GI50 was 22100 nM and the TGI came to 56.4 µM.

`O=C(NC1CCCCC1)NS(=O)(=O)c1ccc2c(c1)CCC2` had a TGI greater than 100 µM.

As for `O=C1CCC(N2Cc3cc(CNC(=O)C(F)(F)c4ccc(Cl)cc4)ccc3C2=O)C(=O)N1` (centres undefined), the concentration for 50% growth inhibition (GI50) is 110 nM and the TGI was greater than 100 µM.

On to `O=C(O)CN1CCN(CC(=O)O)CC(=O)[O][Hg][O]C(=O)C1`, for which the GI50 is 19600 nM and the TGI came out at 52.7 µM.

For the molecule `O=C1/C(=C/c2ccccc2[N+](=O)[O-])Cc2ccccc21`, the GI50 was 1270 nM and the TGI came out at 3.22 µM.

Take `O=C(OCc1ccc2ccccc2n1)c1cn(C2CC2)c2cc(N3CCN(Cc4ccc5ccccc5n4)CC3)c(F)cc2c1=O`: the GI50 is greater than 89500 nM and the TGI was greater than 100 µM.

With `O=C(O)c1ccc(C(=O)c2ccccc2)c(C(=O)O)c1`, the TGI was greater than 100 µM.

With `Cc1ccc(/C=N\NC(=O)c2[nH]c3ccc(F)cc3c2-c2ccccc2)cc1`, the GI50 was 42.8 nM and the TGI is greater than 100 µM.

The next experiment deals with T-47D breast. The experiment can be described thus: DTP human tumour cell line panel, 48 h.
Regarding `O=C1NC(=O)C(N2C(=O)c3ccccc3C2=O)CC1O` (centres undefined), the GI50 was greater than 100 µM and the TGI was greater than 100 µM.

On to `COc1ccc2c(c1)N(CCO)C1=C(C(=O)OC1)C2c1cccc(F)c1` (centres undefined), for which the GI50 is 1.95 µM and the TGI was greater than 50 µM.

Regarding `C=CC(=O)Nc1cccc(Oc2nc(Nc3ccc(N4CCN(C)CC4)cc3)nc3ccsc23)c1`, the GI50 was 9.72 µM and 5.29 µM; the TGI was > 10 µM and 27 µM.

On to `OCc1ccc(N2CCCC2c2ccccc2)cc1Cl` (centres undefined), for which the GI50 was 0.358 µM and the TGI was found to be 4.71 µM.

Consider `COC1C=COC2(C)Oc3c(C)c(O)c4c(c3C2=O)/C(=N/C2CCC(O)OC2C)C=C(NC(=O)/C(C)=C\C(=O)C2CC2C(O)C(C)C(O)C(C)C(OC(C)=O)C1C)C4=O` (centres undefined), for which the TGI was 8.61 µM.

Turning to `CC(=O)/C=C/c1cn(C(=O)OC(C)(C)C)c2ccc(Br)cc12`, the GI50 was 17.4 µM and the TGI came out at 54.4 µM.

For the molecule `CCOc1ccccc1C(=O)N1CCN(c2cc(Cl)cc(Cl)c2)CC1`, the GI50 was 0.393 µM and the TGI amounted to 29.9 µM.

Molecule `NC(CSC1c2ccccc2-c2ccccc21)C(=O)O` (centres undefined) returned a TGI greater than 100 µM.

Turning to `COc1cc2c(cc1C1COc3cc4occc4cc3C1=O)OCO2` (centres undefined), the TGI is greater than 100 µM.

With `Cc1cc(S(=O)(=O)/N=C(/N)Nc2ccccc2O)c(SCc2ccccc2)cc1Cl`, the GI50 was 12.2 µM and the TGI amounted to 31.4 µM.

Regarding `O=C1CCC(N2Cc3cc(CNC(=O)C(F)(F)c4ccc(Cl)cc4)ccc3C2=O)C(=O)N1` (centres undefined), the GI50 is 0.442 µM and the TGI was greater than 100 µM.

For `O=C(O)CN1CCN(CC(=O)O)CC(=O)[O][Hg][O]C(=O)C1`, the GI50 was 17 µM and the TGI is 43.2 µM.

Turning to `O=C1/C(=C/c2ccccc2[N+](=O)[O-])Cc2ccccc21`, the GI50 was 2.22 µM and the TGI was greater than 100 µM.

For the molecule `O=C(OCc1ccc2ccccc2n1)c1cn(C2CC2)c2cc(N3CCN(Cc4ccc5ccccc5n4)CC3)c(F)cc2c1=O`, the GI50 was 12.9 µM and the TGI was greater than 100 µM.

Molecule `O=C(O)c1ccc(C(=O)c2ccccc2)c(C(=O)O)c1` returned a TGI greater than 100 µM.

Take `Cc1ccc(/C=N\NC(=O)c2[nH]c3ccc(F)cc3c2-c2ccccc2)cc1`: the GI50 was 1.1 µM and the TGI is greater than 100 µM.

Another experiment concerns KM12 colon. Briefly: DTP human tumour cell line panel, 48 h.
With `CCC(=O)C12OC3OC(C)(C)OC3C1OC(C)(C)O2` (centres undefined), the TGI is greater than 100 µM.

Molecule `COc1cc(C(=O)C/C(CCC(=O)Nc2ccccc2[N+](=O)[O-])=N\NC(N)=O)ccc1O` gave a TGI greater than 100 µM.

`COc1ccc(-c2cc(Cc3cccs3)c(=O)[nH]n2)cc1`: the TGI is greater than 100 µM.

Turning to `O=C1NC(=O)C(N2C(=O)c3ccccc3C2=O)CC1O` (centres undefined), the GI50 was greater than 100 µM and the TGI is greater than 100 µM.

Molecule `COC(=O)C1(C)CCc2c(OC)ccc(OC)c2C1=O` (centres undefined) came in with a TGI greater than 100 µM.

Molecule `COC(=O)C1CC2CC(=NNC(N)=O)CC2C1` (centres undefined) yielded a TGI greater than 100 µM.
